From US20020133846A1, “Method for protecting plants” (priority 1996, published 2002)
Like-named read-outs stand apart in the source and are kept apart here.

Tests used:
Mycosphaerella fijiensis = assay: Action against Mycosphaerella fijiensis in bananas
Description: 40 banana plants in a 300 m^2 plot were sprayed at 17-19 day intervals with a spray mixture prepared with the wettable powder of the active ingredient; in total 6 times. Infection was naturally. For evaluation, the leaf infested with the fungus was measured.

[1] = system: Colletotrichum lagenarium; assay: Action against Colletotrichum lagenarium on Cucumis sativus L., soil application; assay type: in vivo
Peronospora tabacina = assay: Action against Peronospora tabacina on tobacco plants
Description: Tobacco plants (6 weeks old) were sprayed with a formulated solution of the test compound. Four days after treatment, the plants were inoculated with a sporangia suspension of the fungus, kept at high humidity for 4 to 5 days and then incubated further under a normal day/night sequence. Evaluation of the symptoms in the tests was based on the leaf surface infested with fungus. The infestation of the untreated plants corresponded to 0 % action.

Pyricularia oryzae [2] = assay type: in vivo
[3] = system: Peronospora parasitica Emwa; assay: Action against Peronospora parasitica Emwa in Arabidopsis thaliana (Ws), rRNA fungal probe; assay type: in vivo; settings: Hyaloperonospora parasitica, in Arabidopsis thaliana; for inhibition at 10 µM: BTH alone 0.01 mM
Pyricularia oryzae [4] = assay type: in vivo; settings: Table 13, comp. I alone 6 ppm
Pyricularia oryzae [5] = assay type: in vivo; remark: listed apart in the source
Erysiphe graminis [6] = assay: Action against Erysiphe graminis on barley (residual-protective / systemic)
Description: Residual-protective action: Barley plants about 8 cm in height were sprayed to drip point with an aqueous spray mixture (max. 0.02 % active ingredient) and were dusted 3 to 4 days later with conidia of the fungus. The infected plants were stood in a greenhouse at 22°. Fungus infestation was generally evaluated 10 days after infection.
Systemic action: Barley plants about 8 cm in height were watered with an aqueous spray mixture (max. 0.002 % active ingredient, based on the volume of the soil). […] The plants were dusted with conidia of the fungus 3 to 4 days later. The infected plants were stood in a greenhouse at 22°. Fungus infestation was generally evaluated 10 days after infection.

Cercospora nicotianae = assay: Action against Cercospora nicotianae on tobacco plants; assay type: in vivo
Alternaria solani = assay: Action against Alternaria solani in tomatoes in the open
Description: Tomato plants on a 7 m^2 plot were sprayed at 7-day intervals with a spray mixture prepared wettable powder of the active ingredient; in total 9 times. Infection was naturally. For ion, the leaf infested with the fungus was measured.

[7] = system: Peronospora parasitica NoCo2; assay: whole plant or invertebrate; assay type: in vivo; settings: Hyaloperonospora parasitica, in Arabidopsis thaliana
[8] = system: Peronospora parasitica isolate Emwa; assay: Fungal resistance to Peronospora parasitica Emwa after BTH treatment, Ws and NIM1-overexpressing lines; assay type: in vivo; settings: 10 μM BTH
Erysiphe graminis [9] = assay: Action against Erysiphe graminis in wheat, field trials
Description: In field trials (10 m^2), winter wheat in the growth phase was sprayed with a spray mixture prepared with a wettable powder of the active ingredient. Infection was naturally. 10 days post-infection, the fungus infestation was assessed.

Cercospora sp. = assay: Action against Cercospora sp. (leaf spot) on chili, field; assay type: in vivo; settings: Table 17, leaves after sixth spraying
Puccinia recondita = assay: Action against Puccinia recondita in wheat
Description: 7-day-old wheat plants were sprayed to drip point with a spray mixture prepared from a formulated active ingredient, or combination of active ingredients. After 4 days, the treated plants were infected with a conidia suspension of the fungus, and the treated plants were subsequently incubated for 2 days at a relative atmospheric humidity of 90-100% and 20 C. 10 days post-infection, the fungus infestation was assessed.

Phytophthora infestans = assay type: in vivo
Colletotrichum sp. = assay: Action against Colletotrichum sp. (anthracnose) on chili, field; assay type: in vivo; settings: Table 16, chili fruits after fifth spraying
Description: Effects on crop yield: In a plot of land about 10 m^2 (test location: Cikampek, Java, Indonesia), chili plants were sprayed a total of 7 times at intervals of about 7 days with 500-700 liters of spray mixture per hectare. Three days after the first spraying, the plants were infected artificially with the fungus.

PR-1 gene expression = assay: Northern analysis of PR-1 gene expression after BTH treatment, Ws and NIM1-overexpressing lines; assay type: in vivo, Arabidopsis thaliana; settings: for PR-1 gene expression: 10 μM BTH
[10] = system: Peronospora parasitica NoCo2; assay: Action against Peronospora parasitica NoCo2 in Arabidopsis thaliana (Col-0), rRNA fungal probe; assay type: in vivo; settings: Table 29, Col-0, BTH alone 0.01 mM
[11] = Action on crop yield of chili, field; assay type: in vivo
[12] = system: Peronospora parasitica (NoCo2); assay: Resistance to Peronospora parasitica (NoCo2) in Arabidopsis, Example 17; assay type: in vivo; settings: wild type Col-0 plants treated with INA 0.25 mg/ml, seven days after inoculation
[13] = system: Pseudomonas syringae DC3000; assay: Infection with Pseudomonas syringae DC3000 in Arabidopsis, Example 17; settings: wild-type plants pretreated with INA (0.25 mg/ml)
Description: Six-week-old wild-type (±INA treatment), and cim3 plants were inoculated with a suspension of P. syringae DC3000 and the progress of the disease was followed by monitoring the growth of the bacteria extracted from infected leaves over time. […] The plants were also visually inspected for disease symptoms.
For this example, cultures of Pseudomonas syringae pv. tomato strain DC3000 were grown on King's B media (agar plates or liquid) plus rifampicin (50 jig/ml) at 28° C. […] An overnight culture was diluted and resuspended in 10 mM MgCT2 to a density of 2-5×10^5 cells per ml and injected into Arabidopsis leaves. Injections were carried out by creating a small hole with a 28 gauge needle midway up the leaf and then injecting approximately 250 μl of the diluted bacterial solution with a 1 cc syringe. At various time points, 10 random samples consisting of 3 random leaf punches from a #1 cork borer were taken from 10 plants from each treatment. The 3 leaf punches were placed in an eppendorf tube with 300 μl of 10 MM MgCl2 and ground with a pestle. The resulting bacterial suspension was appropriately diluted and plated on King's B media plus rifampicin (50 μg/ml) and grown for 4 days at 28° C. Bacterial colonies were counted and the data were subjected to Student's t statistical analysis (Sokal and Rohlf (1981), Biometry, 2nd ed. New York: W.H. Freeman and Company). […]

Compound: CSC(=O)c1cccc2nnsc12 [BTH]
- % action O (observed) (Mycosphaerella fijiensis; Table 23, comp. I alone 50 g a.i. per ha): 19%
- % action O (observed) ([1]; Table 8, comp. I alone 0.02 ppm): 6%
- % action O (observed) ([1]; Table 8, comp. I alone 0.2 ppm): 36%
- % action O (observed) ([1]; Table 8, test 1, comp. I alone 0.06 ppm): 0%
- % action O (observed) ([1]; Table 8, test 3, comp. I alone 0.06 ppm): 23%
- % action O (observed) (Peronospora tabacina; Table 28, comp. I alone 0.03 ppm): 14%
- % action O (observed) (Peronospora tabacina; Table 28, comp. I alone 0.1 ppm): 34%
- % action O (observed) (Peronospora tabacina; Table 28, comp. I alone 0.3 ppm): 88%
- % action O (observed) (Pyricularia oryzae [2]; Table 15, comp. I alone 0.05 ppm): 5%
- % action O (observed) (Pyricularia oryzae [2]; Table 15, comp. I alone 0.1 ppm): 18%
- % action O (observed) (Pyricularia oryzae [2]; Table 15, comp. I alone 0.25 ppm): 39%
- % action O (observed) (Pyricularia oryzae [2]; Table 15, comp. I alone 0.5 ppm): 65%
- inhibition at 3 µM ([3]; Table 30, Ws, BTH alone 0.003 mM, read-out: Fungal Growth Inhibition % O (observed)): 0%
- inhibition at 10 µM ([3]; Table 30, Ws, read-out: Fungal Growth Inhibition % O (observed)): 20%
- inhibition at 10 µM ([3]; Table 31, Ws, read-out: Fungal Growth Inhibition % O (observed)): 30%
- inhibition at 10 µM ([3]; Table 32, Ws, read-out: Fungal Growth Inhibition % O (observed)): 30%
- inhibition at 10 µM ([3]; text summary of Tables 30-32, Ws plants, read-out: fungal growth inhibition): 20 to 30%
- % action O (observed) (Pyricularia oryzae [4]): 15%
- % action O (observed) (Pyricularia oryzae [5]; Table 14, comp. I alone 0.25 kg a.i. per ha): 22%
- % action O (observed) (Pyricularia oryzae [5]; Table 14, comp. I alone 0.5 kg a.i. per ha): 50%
- % action O (observed) (Erysiphe graminis [6]; Table 3, comp. I alone 0.6 ppm): 14%
- % action O (observed) (Erysiphe graminis [6]; Table 3, comp. I alone 2 ppm): 33%
- % action O (observed) (Cercospora nicotianae; Table 9, comp. I alone 0.2 ppm): 0%
- % action O (observed) (Cercospora nicotianae; Table 9, comp. I alone 2 ppm): 17%
- % action O (observed) (Cercospora nicotianae; Table 9, comp. I alone 6 ppm): 55%
- % action O (observed) (Cercospora nicotianae; Table 9, comp. I alone 20 ppm): 78%
- % action O (observed) (Cercospora nicotianae; Table 10, comp. I alone 0.2 ppm): 0%
- % action O (observed) (Cercospora nicotianae; Table 10, comp. I alone 2 ppm): 17%
- % action O (observed) (Cercospora nicotianae; Table 10, comp. I alone 6 ppm): 55%
- % action O (observed) (Cercospora nicotianae; Table 10, comp. I alone 20 ppm): 78%
- % action O (observed) (Alternaria solani; Table 24, comp. I alone 2.5 g a.i. per ha): 32%
- inhibition at 30 µM ([7]; read-out: Fungal Growth Inhibition % O (observed), Table 34, wt Col-0, BTH 0.03 mM): 20.8%
- inhibition at 100 µM ([7]; read-out: Fungal Growth Inhibition % O (observed), Table 34, wt Col-0, BTH 0.1 mM): 85.7%
- resistance to P. parasitica ([8]; NIM1-overexpressing lines): complete or almost complete resistance
- susceptibility to P. parasitica (Emwa) ([8]; wild-type Ws plants): still susceptible
- % action O (observed) (Erysiphe graminis [9]; Table 21, comp. I alone 5 g a.i. per ha): 29%
- % action O (observed) (Erysiphe graminis [9]; Table 22, comp. I alone 5 g a.i. per ha): 29%
- % action O (observed) (Cercospora sp.; comp. I alone 5 ppm): 76%
- % action O (observed) (Puccinia recondita; Table 19, comp. I alone 100 mg a.i. per liter): 51%
- % action O (observed) (Phytophthora infestans; Table 25, comp. I alone 5 mg a.i. per liter): 14%
- % action O (observed) (Phytophthora infestans; Table 25, comp. I alone 25 mg a.i. per liter): 36%
- % action O (observed) (Phytophthora infestans; Table 25, comp. I alone 100 mg a.i. per liter): 61%
- % action O (observed) (Phytophthora infestans; Table 25, comp. I alone 500 mg a.i. per liter): 72%
- % action O (observed) (Colletotrichum sp.; comp. I alone 5 ppm): 55%
- PR-1 gene expression in leaf tissue (PR-1 gene expression; NIM1-overexpressing lines relative to wild-type, 100 μM BTH): much stronger and quicker
- PR-1 gene expression (PR-1 gene expression; NIM1-overexpressing lines): much stronger response
- PR-1 gene expression (PR-1 gene expression; wild-type Ws line): barely detectable
- inhibition at 10 µM ([10]; Hyaloperonospora parasitica, in Arabidopsis thaliana, read-out: Fungal Growth Inhibition % O (observed)): 0%
- Fungal Growth Inhibition % O (observed) [10]: no fungal growth inhibition
- Crop yield in kg per hectare O (observed) ([11]; Table 18, harvest after sixth spraying, comp. I alone 5 ppm): 459 kg per hectare

Compound: O=C(O)c1cc(Cl)nc(Cl)c1 [INA, 2,6-dichloroisonicotinic acid]
- fungal growth (trypan blue, sporulation) [12]: no fungal growth
- disease symptoms (visual inspection) [13]: nearly devoid of disease symptoms

Compound: Cc1cc(C2CC2)nc(Nc2ccccc2)n1 [cyprodinil, 4-cyclopropyl-6-methyl-N-phenyl-2-pyrimidinamine]
- % action O (observed) (Alternaria solani; Table 24, comp. II alone 12.5 g a.i. per ha): 30%
- % action O (observed) (Alternaria solani; Table 24, comp. II alone 25 g a.i. per ha): 51%
- % action O (observed) (Erysiphe graminis [9]; Table 22, comp. II alone 50 g a.i. per ha): 2%
- % action O (observed) (Erysiphe graminis [9]; Table 22, comp. II alone 100 g a.i. per ha): 31%

Compound: CCCC1COC(Cn2cncn2)(c2ccc(Cl)cc2Cl)O1 (stereo not drawn) [propiconazole, 1-[2-(2,4-dichlorophenyl)-4-propyl-1,3-dioxolan-2-ylmethyl]-1H-1,2,4-triazole]
- % action O (observed) (Mycosphaerella fijiensis; Table 23, comp. II alone 50 g a.i. per ha): 26%
- % action O (observed) (Erysiphe graminis [9]; Table 21, comp. II alone 50 g a.i. per ha): 2%
- % action O (observed) (Erysiphe graminis [9]; Table 21, comp. II alone 100 g a.i. per ha): 31%
- % action O (observed) (Puccinia recondita; Table 19, comp. II alone 5 mg a.i. per liter): 10%

Compound: manganese ethylenebis(dithiocarbamate)polymer-zinc complex [mancozeb]
- % action O (observed) (Cercospora sp.; comp. II alone 100 ppm): 8%
- % action O (observed) (Colletotrichum sp.; comp. II alone 100 ppm): 12%
- Crop yield in kg per hectare O (observed) ([11]; in vivo): 8 kg per hectare
